Assay results as given in US20080200439A1, “Methods and compositions for modulating BK channel activity and vasodilation” (University of Tennessee Research Foundation, priority 2006, published 2008).

How the values were obtained:
[1] = test system: pressurized resistance cerebral arteries; assay: Artery diameter measurement, pressurized rat middle cerebral arteries; conditions: for Integral (area under the curve) from the time of drug application until complete washout of effect: change in diameter as a function of time; for Effect remaining after ~6 min of washout (percentual increase from diameter before agent application): when vehicle effect had totally vanished
Experimental: (§1) Artery Diameter Measurement. Middle cerebral arteries were isolated from adult male Sprague-Dawley rats (=250 g) or 8- to 12-week-old β1-knockout and C57BL/6 control mice. Rats and mice were decapitated using a guillotine and sharp scissors, respectively. These procedures were approved by the Institutional Animal Care and Use Committee from The University of Tennessee Health Science Center, an AMLAC-accredited institution. Pressurization of arteries was performed as described (Liu et al., 2004). Endothelium was removed by passing an air bubble into the vessel lumen for 90 sec. Diameter changes were monitored through an inverted microscope (Nikon Eclipse TS100, Nikon Corp., Tokyo, Japan), recorded on camera (Sanyo VCB-3512T, Sanyo Electric Corp., Japan), and transferred to a computer. Diameter data were acquired and analyzed using IonWizard 4.4 software (IonOptics Corp., Milton, Mass., United States of America).
Pressurized arteries were extraluminally perfused with physiological saline solution (PSS) (Liu et al., 2004) at a constant rate of 3.75 ml/min using a peristaltic pump Dynamax RP-1 (Rainin Instrument, Inc., Oakland, Calif., United States of America). At this rate, complete washout of the iberiotoxin (Ibtx) effect required >45 min. To keep basal tone under steady behavior, we shortened this period by increasing flow rate ˜3 times during washout of Ibtx, which sometimes evoked a flow-induced dilation (FIG. 1A). Equal volumes (25 ml) of vehicle- vs. LC-containing solutions were applied at equal, constant rate (see above) to the pressurized arterial segment in the chamber via a gravity system. Drugs were dissolved to make stock solutions (see Chemicals) and diluted in PSS to final concentration.
Chemicals. All chemicals were purchased from Sigma (St. Louis, Mo., United States of America), with the exception of 5β-cholanic acid 3α-ol (LC) (Steraloids, Inc., Newport, R.I., United States of America) and Ibtx (Alomone Labs Ltd., Jerusalem, Israel). On the day of the experiment, an LC stock solution (333 mM) in dimethyl sulfoxide (DMSO) was freshly prepared by sonication for 5 min. For arterial tone experiments, the LC stock was diluted 1/10 in DMSO and further diluted in PSS to render final LC concentration. Solution containing vehicle (0.1% DMSO; V/V) was used as control perfusion. For electrophysiological recordings, the LC stock solution was diluted 1/10 in 95% ethanol and further diluted with bath solution to render final LC concentration (3-1,000 μM). The DMSO/ethanol vehicle (≦0.1/≦0.86% final concentrations) in bath solution was used as control.
Data Analysis. Artery diameter response to each compound is shown as a percentage of the diameter obtained before compound application. Arterial diameter and electrophysiological data were analyzed with IonWizard 4.4 (IonOptics Corp., Milton, Mass., United States of America) and pCLAMP 8.0 (Molecular Devices, Union City, Calif., United States of America). Further analysis, plotting, and fitting were conducted using Origin 7.0 (Originlab Corp., Northampton, Mass., United States of America) and InStat 3.0 (GraphPad Software Inc., San Diego, Calif., United States of America).
After myogenic tone development at 60 mm Hg, intact arteries reached a diameter of 154.4±5.2 μm (n=17). Maximal contraction and dilation were checked by perfusing the vessel with 60 mM KCl at the beginning, and Ca^2+-free solution at the end of each experiment (FIGS. 1A & 1B). In all cases (n=17), application of 45 μM LC, that is, concentrations well below LC's critical micellar concentration (CMC) (≧1 mM under our recording conditions) (Roda et al., 1995) caused a significant increase in peak arterial diameter: +6% on top of a transient increase in diameter caused by vehicle-containing solution (FIGS. 1A-1C). […]

[2] = test system: pressurized cerebral arteries from wt mice; assay: Artery diameter measurement, pressurized cerebral arteries from wt C57BL/6 mice; design: species or system mouse
Experimental: as §1, with “America). […]” for “America).”
Data Analysis. […] Arterial diameter and electrophysiological data were analyzed with IonWizard 4.4 (IonOptics Corp., Milton, Mass., United States of America) and pCLAMP 8.0 (Molecular Devices, Union City, Calif., United States of America). […]
To determine the impact of LC targeting of BK β1-subunits on organ function, LC action on the arterial diameter of pressurized cerebral arteries was evaluated from β1-knockout vs. wt C57BU6 mice (controls). […]

[3] = 45 μM, listed as Lithocholic acid

Molecule | Change in diameter caused by LC in the presence of Ibtx ([1]; 45 μM LC + 55 nM Ibtx) | Change in peak diameter caused by LC in the presence of 4-AP (over pre-LC values) ([1]; 45 μM LC + 0.8 mM 4-AP) | Integral (area under the curve) from the time of drug application until complete washout of effect ([1]; 45 μM) | Integral (area under the curve) from the time of drug application until complete washout of effect [1, 3] | Expected increase in cerebral blood flow (CBF) ([1]; 45 μM, from diameter change by a factor of ~3 (Gourley and Heistad, 1984)) | Increase in peak arterial diameter on top of the transient increase caused by vehicle ([1]; 45 μM, intact arteries) | Rise time ([1]; 45 μM, intact arteries with myogenic tone at 60 mm Hg) | Effect remaining after ~6 min of washout (percentual increase from diameter before agent application) ([1]; 45 μM) | Effect remaining after ~6 min of washout (percentual increase from diameter before agent application) [1, 3] | Emax at 45 µM ([1]; Rattus norvegicus, 45 μM, intact arteries, read-out: Maximal effect (% from diameter before compound application)) | Increase in diameter from initial diameter ([2]; 45 μM, wt mouse cerebral arteries) | Decrease in diameter of intact arteries ([1]; 55 nM, bath application) | Decrease from initial diameter (vasoconstriction) ([2]; 55 nM, within 15 min of application, control mice)
C[C@H](CCC(=O)O)[C@H]1CC[C@H]2[C@@H]3CC[C@@H]4C[C@H](O)CC[C@]4(C)[C@H]3CC[C@]12C [LC, 5β-cholanic acid 3α-ol] | −3.4% | +6% | 18,369±3,964 | 18,369 ± 3,964 | ~30% | +6% | 231.9 ± 21.9 s | 109.9±1.7% | 109.9 ± 1.7 % | 117 ± 1.9% | +4.4±0.9% | – | –
iberiotoxin (QFTDVDCSVSKECWSVCKDLFGVDRGKCMGKKCRCYQ; UniProt P24663 1-37, looked up) [Ibtx, reference compound] | – | – | – | – | – | – | – | – | – | – | – | −11.8±3.4% | −8.7±4.2%
